Assay results: ChEMBL document CHEMBL5247629, “C-6 fluorinated casuarines as highly potent and selective amyloglucosidase inhibitors: Synthesis and structure-activity relationship study” (Eur J Med Chem, 2022)

Experiments:
Penicillium decumbens [1] = assay: Inhibition of Penicillium decumbens alpha-L-rhamnosidase at 1000 uM relative to control
Alpha-glucosidase [2] = target: T1, Alpha-glucosidase (Saccharomyces cerevisiae S288c, UniProt P53341+P38158+P07265); assay: Inhibition of yeast alpha-glucosidase; type: protein assay
[3] = Inhibition of rice alpha-glucosidase; design: species or system Oryza sativa
[4] = Inhibition of rat intestinal maltase; type: tissue-based, Intestine
Prunus dulcis [5] = assay: Inhibition of almond beta-glucosidase at 1000 uM relative to control
Bos taurus [6] = organism: Bos taurus; assay: Inhibition of bovine liver beta-glucosidase at 1000 uM relative to control; type: tissue-based
[7] = target: Alpha-galactosidase (Coffea arabica) (UniProt Q42656); assay: Inhibition of coffee bean alpha-galactosidase at 1000 uM relative to control
Alpha-galactosidase (Coffea arabica), sequence (Q42656 16-378 limits assumed): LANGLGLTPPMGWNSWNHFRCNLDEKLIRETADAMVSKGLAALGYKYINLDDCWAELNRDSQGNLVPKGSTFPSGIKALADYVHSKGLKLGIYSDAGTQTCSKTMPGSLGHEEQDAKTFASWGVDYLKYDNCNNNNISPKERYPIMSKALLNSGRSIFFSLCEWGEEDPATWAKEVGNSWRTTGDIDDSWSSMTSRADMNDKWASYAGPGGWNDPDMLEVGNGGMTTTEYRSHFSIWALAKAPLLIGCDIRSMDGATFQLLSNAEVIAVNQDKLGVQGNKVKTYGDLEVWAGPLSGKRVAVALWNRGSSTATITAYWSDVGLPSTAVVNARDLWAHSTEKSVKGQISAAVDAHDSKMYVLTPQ

Bos taurus [8] = organism: Bos taurus; assay: Inhibition of bovine liver beta-galactosidase at 1000 uM relative to control
[9] = target: T2, Alpha-mannosidase (Canavalia ensiformis) (UniProt C0HJB3); assay: Inhibition of jack bean alpha-mannosidase at 1000 uM relative to control
T2 sequence (whole entry): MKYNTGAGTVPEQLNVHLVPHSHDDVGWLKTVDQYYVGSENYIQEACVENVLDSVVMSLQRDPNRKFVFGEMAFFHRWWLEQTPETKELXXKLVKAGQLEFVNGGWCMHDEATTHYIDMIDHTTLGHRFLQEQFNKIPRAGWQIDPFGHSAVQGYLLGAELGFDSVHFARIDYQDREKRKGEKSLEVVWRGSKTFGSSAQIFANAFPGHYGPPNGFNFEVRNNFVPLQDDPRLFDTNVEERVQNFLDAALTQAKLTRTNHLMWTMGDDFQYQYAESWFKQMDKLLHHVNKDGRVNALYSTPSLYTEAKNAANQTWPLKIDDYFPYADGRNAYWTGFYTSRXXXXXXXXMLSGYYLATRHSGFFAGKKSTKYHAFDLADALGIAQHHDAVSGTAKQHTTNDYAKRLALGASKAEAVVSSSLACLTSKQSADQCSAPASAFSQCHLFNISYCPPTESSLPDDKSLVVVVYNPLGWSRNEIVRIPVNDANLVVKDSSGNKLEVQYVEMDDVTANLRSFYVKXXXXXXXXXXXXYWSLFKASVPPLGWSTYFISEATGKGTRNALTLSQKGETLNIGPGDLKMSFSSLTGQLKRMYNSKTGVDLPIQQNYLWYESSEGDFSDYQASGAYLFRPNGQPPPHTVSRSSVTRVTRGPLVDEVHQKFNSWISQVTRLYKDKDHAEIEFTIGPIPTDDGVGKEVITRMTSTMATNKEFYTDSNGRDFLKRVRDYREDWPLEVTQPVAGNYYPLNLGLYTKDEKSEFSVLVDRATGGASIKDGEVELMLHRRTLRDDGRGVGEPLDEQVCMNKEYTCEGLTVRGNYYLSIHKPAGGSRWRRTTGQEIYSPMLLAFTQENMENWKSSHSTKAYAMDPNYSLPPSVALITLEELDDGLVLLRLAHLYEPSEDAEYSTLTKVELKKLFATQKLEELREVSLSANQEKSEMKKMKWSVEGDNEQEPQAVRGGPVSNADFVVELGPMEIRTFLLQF

Helix pomatia [10] = assay: Inhibition of snail beta-mannosidase at 1000 uM relative to control
[11] = target: T3, Tissue alpha-L-fucosidase (Bos taurus) (UniProt Q2KIM0); assay: Inhibition of bovine kidney alpha-L-fucosidase at 1000 uM relative to control; type: tissue-based
T3 sequence (whole entry): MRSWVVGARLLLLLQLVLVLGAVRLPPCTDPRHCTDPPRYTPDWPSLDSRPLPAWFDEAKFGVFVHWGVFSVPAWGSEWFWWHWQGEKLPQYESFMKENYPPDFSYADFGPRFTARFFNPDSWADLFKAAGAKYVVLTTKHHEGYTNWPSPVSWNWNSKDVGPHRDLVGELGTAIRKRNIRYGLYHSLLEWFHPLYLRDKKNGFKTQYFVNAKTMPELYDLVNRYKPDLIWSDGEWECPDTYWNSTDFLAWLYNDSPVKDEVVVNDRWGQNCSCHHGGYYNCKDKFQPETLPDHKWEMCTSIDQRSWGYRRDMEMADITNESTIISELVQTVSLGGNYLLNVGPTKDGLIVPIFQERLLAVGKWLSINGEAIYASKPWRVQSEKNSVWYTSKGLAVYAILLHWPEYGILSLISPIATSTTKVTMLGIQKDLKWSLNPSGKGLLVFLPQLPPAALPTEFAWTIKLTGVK

[12] = Inhibition of porcine kidney alpha/alpha-trehalase; type: tissue-based, Sus scrofa
[13] = Inhibition of Aspergillus niger amyloglucosidase
Escherichia coli [14] = assay: Inhibition of Escherichia coli beta-glucuronidase at 1000 uM relative to control
Bos taurus [15] = organism: Bos taurus; assay: Inhibition of bovine liver beta-glucuronidase at 1000 uM relative to control; type: tissue-based
[16] = Inhibition of Aspergillus niger amyloglucosidase using p-nitrophenyl glycoside as substrate by spectrometric method
Alpha-glucosidase [17] = target: T1, Alpha-glucosidase; assay: Inhibition of yeast alpha-glucosidase using p-nitrophenyl glycoside as substrate by spectrometric method; type: protein assay
Oryza sativa = assay: Inhibition of rice alpha-glucosidase using p-nitrophenyl glycoside as substrate at 1000 uM by spectrometric method relative to control
[18] = Inhibition of rat intestinal maltase using maltose as substrate at pH 6.8 by colorimetric method; type: tissue-based, Intestine
Prunus dulcis [19] = assay: Inhibition of almond beta-glucosidase using p-nitrophenyl glycoside as substrate at 1000 uM by spectrometric method relative to control
Bos taurus [20] = organism: Bos taurus; assay: Inhibition of bovine liver beta-glucosidase using p-nitrophenyl glycoside as substrate at 1000 uM by spectrometric method relative to control; type: tissue-based
[21] = target: T2, Alpha-mannosidase (Canavalia ensiformis); assay: Inhibition of jack bean alpha-mannosidase using p-nitrophenyl glycoside as substrate at 1000 uM by spectrometric method relative to control
[22] = target: Alpha-galactosidase (Coffea arabica) (UniProt Q42656); assay: Inhibition of coffee bean alpha-galactosidase using p-nitrophenyl glycoside as substrate at 1000 uM by spectrometric method relative to control
Bos taurus [23] = organism: Bos taurus; assay: Inhibition of bovine liver beta-galactosidase using p-nitrophenyl glycoside as substrate at 1000 uM by spectrometric method relative to control; type: tissue-based
Helix pomatia [24] = assay: Inhibition of snail beta-mannosidase using p-nitrophenyl glycoside as substrate at 1000 uM by spectrometric method relative to control
[25] = target: T3, Tissue alpha-L-fucosidase (Bos taurus); assay: Inhibition of bovine kidney alpha-L-fucosidase using p-nitrophenyl glycoside as substrate at 1000 uM by spectrometric method relative to control; type: tissue-based
[26] = Inhibition of porcine kidney alpha/alpha-trehalase using p-nitrophenyl glycoside as substrate by spectrometric method; design: species or system Sus scrofa
Penicillium decumbens [27] = assay: Inhibition of Penicillium decumbens alpha-L-rhamnosidase using p-nitrophenyl glycoside as substrate at 1000 uM by spectrometric method relative to control
Escherichia coli [28] = assay: Inhibition of Escherichia coli beta-glucuronidase using p-nitrophenyl glycoside as substrate at 1000 uM by spectrometric method relative to control
Bos taurus [29] = organism: Bos taurus; assay: Inhibition of bovine liver beta-glucuronidase using p-nitrophenyl glycoside as substrate at 1000 uM by spectrometric method relative to control; type: tissue-based
[30] = target: Alpha-glucosidase (Saccharomyces cerevisiae S288c) (UniProt P53341+P38158+P07265); assay: Inhibition of yeast alpha-glucosidase using p-nitrophenyl glycoside as substrate at 1000 uM by spectrometric method relative to control; type: protein assay
[31] = Inhibition of rice alpha-glucosidase using p-nitrophenyl glycoside as substrate by spectrometric method; design: species or system Oryza sativa
[32] = Inhibition of almond beta-glucosidase using p-nitrophenyl glycoside as substrate by spectrometric method; design: species or system Prunus dulcis
[33] = Inhibition of bovine liver beta-glucosidase using p-nitrophenyl glycoside as substrate by spectrometric method; type: tissue-based, Bos taurus
[34] = Inhibition of bovine liver beta-galactosidase using p-nitrophenyl glycoside as substrate by spectrometric method; design: species or system Bos taurus
Sus scrofa = organism: Sus scrofa; assay: Inhibition of porcine kidney alpha/alpha-trehalase using p-nitrophenyl glycoside as substrate at 1000 uM by spectrometric method relative to control; type: tissue-based
Rattus norvegicus = organism: Rattus norvegicus; assay: Inhibition of rat intestinal maltase using maltose as substrate at 1000 uM at pH 6.8 by colorimetric method relative to control; type: tissue-based; conditions: Intestine
[35] = Inhibition of Penicillium decumbens alpha-L-rhamnosidase using p-nitrophenyl glycoside as substrate by spectrometric method

Row | Compound | inhibition (Penicillium decumbens [1]) | IC50 (Alpha-glucosidase [2]) | IC50 [3] | IC50 [4] | inhibition (Prunus dulcis [5]) | inhibition (Bos taurus [6]) | inhibition [7] | pIC50 [16] | IC50 [18] | inhibition (Bos taurus [20]) | inhibition [21] | inhibition [22] | inhibition (Bos taurus [23]) | inhibition (Helix pomatia [24]) | inhibition [25] | IC50 [16] | inhibition (Penicillium decumbens [27]) | inhibition (Escherichia coli [28]) | inhibition (Bos taurus [29]) | inhibition [30] | other results
1 | OC[C@@H]1[C@@H](O)[C@H](O)[C@H]2[C@H](O)[C@H](O)CN21 | 13.2% | 46 µM | 68 µM | 13 µM | 31.9% | 1.9% | 6% | 5.276 | – | – | – | – | – | – | – | – | – | – | – | – | inhibition (Bos taurus [8]): 5.9%; inhibition [9]: 1.1%; inhibition (Helix pomatia [10]): 3%; inhibition [11]: 0%; IC50 [12]: 9.7 µM; IC50 [13]: 5.3 µM; inhibition (Escherichia coli [14]): 3.1%; inhibition (Bos taurus [15]): 18.4%
2 | OC[C@@H]1[C@@H](O)[C@H](O)[C@H]2C[C@H](O)CN12 | – | – | – | – | – | – | – | 4.377 | 248 µM | 13.9% | 2.2% | 4.5% | 25.4% | 2.4% | 0% | 42 µM | 11.2% | 4.3% | 14% | – | IC50 (Alpha-glucosidase [17]): 466 µM; inhibition (Oryza sativa): 12.4%; inhibition (Prunus dulcis [19]): 10.5%; IC50 [26]: 22 µM
3 | OC[C@@H]1[C@@H](O)[C@H](O)[C@H]2C[C@@H](O)CN12 | – | – | – | – | – | – | – | 4.398 | 72 µM | 21.9% | 6.3% | 4.4% | 5.9% | 3.6% | 14.8% | 40 µM | 6.3% | 20.5% | 10.8% | 44.1% | IC50 [31]: 234 µM; inhibition (Prunus dulcis [19]): 13.6%; IC50 [26]: 124 µM
4 | OC[C@@H]1[C@@H](O)[C@H](O)[C@H]2[C@H](O)[C@@H](O)CN21 [CASUARINE] | 4.6% | 71 µM | 14 µM | 3.1 µM | 12% | 7.5% | 3.7% | 5.201 | – | – | – | – | – | – | – | – | – | – | – | – | inhibition (Bos taurus [8]): 10.2%; inhibition [9]: 0%; inhibition (Helix pomatia [10]): 0%; inhibition [11]: 0%; IC50 [12]: 157 µM; IC50 [13]: 6.3 µM; inhibition (Escherichia coli [14]): 1.8%; inhibition (Bos taurus [15]): 17.3%
5 | OC[C@@H]1[C@@H](O)[C@H](O)[C@H]2[C@H](O)C(F)(F)CN21 | – | – | – | – | – | – | – | 5.678 | 167 µM | – | 6.3% | 1.2% | – | 0% | 6.8% | 2.1 µM | 5.6% | 2.6% | 15.9% | 24% | IC50 [31]: 48 µM; IC50 [32]: 266 µM; IC50 [33]: 747 µM; IC50 [34]: 390 µM; inhibition (Sus scrofa): 5.9%
6 | OC[C@@H]1[C@@H](O)[C@H](O)[C@H]2[C@H](O)[C@H](F)CN21 | – | – | – | – | – | – | – | 6.854 | – | 43.8% | 5.8% | 1.7% | 47.6% | 5.9% | 7.6% | 0.14 µM | – | 4.3% | 11.6% | 12% | inhibition (Oryza sativa): 12.7%; inhibition (Rattus norvegicus): 33%; IC50 [32]: 395 µM; inhibition (Sus scrofa): 15.6%; IC50 [35]: 488 µM
